Data published in ChEMBL document CHEMBL1201862, “PubChem BioAssay data set” (2004).
Blank lines part the entries; values can stand above or below the molecule they belong to. The source made the active and inactive calls.

How the values were obtained:
[1] = viability of uninfected HEp-2 cells – cell-based, HTS, cytotoxicity control for RSV inhibitor project, dose response (AID 2410); type: functional; conditions: human respiratory syncytial virus
HEK293 = assay: cells; conditions: Homo sapiens;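 further: cells exposed to compound for 14 hours overnight before viability readout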
[2] = Luminescence Cell-Based Dose Retest to Confirm Inhibitors of Cancer Stem Cells. [Related pubchem assays (depositor defined):AID2717, AID2721]; type: functional; conditions: Homo sapiens
[3] = target: T1, Nucleotide-binding oligomerization domain-containing protein 1 (Homo sapiens, UniProt Q9Y239); assay: blockers of NOD1 pathway activity – revised, SAR follow-up (AID 2333); type: functional
T1 sequence (Q9Y239 whole entry): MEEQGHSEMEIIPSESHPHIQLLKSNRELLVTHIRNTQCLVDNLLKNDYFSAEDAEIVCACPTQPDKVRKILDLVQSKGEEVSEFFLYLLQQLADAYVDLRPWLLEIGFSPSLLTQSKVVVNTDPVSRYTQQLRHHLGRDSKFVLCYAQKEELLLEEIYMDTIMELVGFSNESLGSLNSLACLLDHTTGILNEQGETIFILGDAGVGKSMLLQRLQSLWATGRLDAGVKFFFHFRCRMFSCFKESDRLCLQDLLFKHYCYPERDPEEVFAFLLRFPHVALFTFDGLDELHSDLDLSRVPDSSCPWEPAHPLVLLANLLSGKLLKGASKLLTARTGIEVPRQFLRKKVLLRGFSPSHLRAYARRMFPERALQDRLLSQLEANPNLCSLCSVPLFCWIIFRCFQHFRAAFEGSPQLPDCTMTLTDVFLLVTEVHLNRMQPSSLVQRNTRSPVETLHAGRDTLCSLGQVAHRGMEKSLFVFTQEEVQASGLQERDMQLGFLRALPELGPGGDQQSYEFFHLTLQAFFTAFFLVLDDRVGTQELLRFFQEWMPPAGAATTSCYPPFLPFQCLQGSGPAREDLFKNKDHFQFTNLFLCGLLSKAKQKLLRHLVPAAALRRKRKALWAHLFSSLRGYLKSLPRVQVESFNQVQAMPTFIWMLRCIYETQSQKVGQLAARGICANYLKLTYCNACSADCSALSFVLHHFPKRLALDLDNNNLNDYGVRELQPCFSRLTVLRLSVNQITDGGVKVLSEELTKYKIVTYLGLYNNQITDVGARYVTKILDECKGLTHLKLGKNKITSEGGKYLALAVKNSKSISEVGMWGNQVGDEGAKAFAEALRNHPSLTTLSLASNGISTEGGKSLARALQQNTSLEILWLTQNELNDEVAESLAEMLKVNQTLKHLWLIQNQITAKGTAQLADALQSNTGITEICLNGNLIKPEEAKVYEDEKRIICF

[4] = target: Nucleotide-binding oligomerization domain-containing protein 2 (Homo sapiens, UniProt Q9HC29); assay: PubChem AID 2334; type: functional
Nucleotide-binding oligomerization domain-containing protein 2, sequence (Q9HC29 whole entry, the tested form may be a part): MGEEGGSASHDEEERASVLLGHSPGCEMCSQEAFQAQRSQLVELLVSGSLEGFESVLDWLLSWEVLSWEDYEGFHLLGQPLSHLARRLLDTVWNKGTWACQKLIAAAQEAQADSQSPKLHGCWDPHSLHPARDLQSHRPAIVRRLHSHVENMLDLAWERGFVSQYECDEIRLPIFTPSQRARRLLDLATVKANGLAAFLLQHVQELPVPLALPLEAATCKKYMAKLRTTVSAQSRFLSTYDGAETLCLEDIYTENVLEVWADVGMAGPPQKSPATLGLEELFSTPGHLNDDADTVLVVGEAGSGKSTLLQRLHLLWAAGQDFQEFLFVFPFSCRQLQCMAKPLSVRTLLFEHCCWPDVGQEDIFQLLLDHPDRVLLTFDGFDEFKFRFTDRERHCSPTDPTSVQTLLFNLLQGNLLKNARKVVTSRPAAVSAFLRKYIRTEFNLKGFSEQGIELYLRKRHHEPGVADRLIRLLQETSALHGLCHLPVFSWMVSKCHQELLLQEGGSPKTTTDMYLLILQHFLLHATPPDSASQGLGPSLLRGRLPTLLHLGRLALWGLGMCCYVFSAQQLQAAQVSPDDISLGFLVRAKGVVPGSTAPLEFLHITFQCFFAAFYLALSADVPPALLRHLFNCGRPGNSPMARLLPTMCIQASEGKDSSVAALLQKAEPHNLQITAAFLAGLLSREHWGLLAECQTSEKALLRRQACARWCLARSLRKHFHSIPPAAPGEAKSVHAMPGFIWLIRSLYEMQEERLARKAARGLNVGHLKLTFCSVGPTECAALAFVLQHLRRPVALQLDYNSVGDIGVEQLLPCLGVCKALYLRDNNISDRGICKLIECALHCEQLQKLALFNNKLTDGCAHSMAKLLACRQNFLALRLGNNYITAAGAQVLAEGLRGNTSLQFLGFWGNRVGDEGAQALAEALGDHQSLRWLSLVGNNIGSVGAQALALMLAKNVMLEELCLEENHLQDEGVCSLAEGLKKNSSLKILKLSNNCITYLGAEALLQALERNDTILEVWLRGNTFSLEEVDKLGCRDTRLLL

Tumor necrosis factor = Tumor necrosis factor (Homo sapiens, UniProt P01375); assay: analog potency on TNFa NF-kB signaling – cell-based, revised, SAR follow-up (AID 2337); type: functional
Tumor necrosis factor, sequence (P01375 whole entry): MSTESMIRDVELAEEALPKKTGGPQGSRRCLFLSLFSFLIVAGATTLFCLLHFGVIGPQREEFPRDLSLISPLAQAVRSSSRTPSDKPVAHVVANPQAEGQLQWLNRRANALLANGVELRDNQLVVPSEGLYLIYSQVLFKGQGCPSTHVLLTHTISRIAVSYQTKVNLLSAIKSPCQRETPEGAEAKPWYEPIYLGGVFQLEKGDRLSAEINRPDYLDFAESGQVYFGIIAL

X-box-binding protein 1 = X-box-binding protein 1 (Homo sapiens, UniProt P17861); type: functional, Cricetulus griseus;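 further: confirmatory dose-response counter-screen serving a CHOP assay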
X-box-binding protein 1, sequence (P17861 whole entry): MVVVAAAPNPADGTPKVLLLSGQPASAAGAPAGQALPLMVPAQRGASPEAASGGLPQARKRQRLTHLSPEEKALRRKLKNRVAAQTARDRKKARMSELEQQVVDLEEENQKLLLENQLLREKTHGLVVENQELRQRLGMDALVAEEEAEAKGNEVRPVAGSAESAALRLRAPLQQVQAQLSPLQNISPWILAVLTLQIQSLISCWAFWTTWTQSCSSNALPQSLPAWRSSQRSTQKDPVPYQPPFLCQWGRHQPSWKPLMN

[5] = viability of PTEN-deleted HCT116 cells – cell-based, HCT116 PTEN knockout, dose response (AID 1047); type: functional;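 further: HCT116 colon tumor cells with PTEN knocked out; cells exposed to compound for 60 hours before readout; potency for loss of cell viability measured by luminescence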
[6] = viability of HCT116 lacking mutant beta-catenin – cell-based, human colon tumor, dose response (AID 1045); type: functional;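 further: HCT116 colon tumor cells with beta catenin knocked out; cells exposed to compound for 60 hours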
Coagulation factor XII = target: T2, Coagulation factor XII (Homo sapiens, UniProt P00748); assay: activated coagulation factor XII inhibitor potency, concentration-effect curve, cell-free (AID 716); type: functional
T2 sequence (P00748 whole entry): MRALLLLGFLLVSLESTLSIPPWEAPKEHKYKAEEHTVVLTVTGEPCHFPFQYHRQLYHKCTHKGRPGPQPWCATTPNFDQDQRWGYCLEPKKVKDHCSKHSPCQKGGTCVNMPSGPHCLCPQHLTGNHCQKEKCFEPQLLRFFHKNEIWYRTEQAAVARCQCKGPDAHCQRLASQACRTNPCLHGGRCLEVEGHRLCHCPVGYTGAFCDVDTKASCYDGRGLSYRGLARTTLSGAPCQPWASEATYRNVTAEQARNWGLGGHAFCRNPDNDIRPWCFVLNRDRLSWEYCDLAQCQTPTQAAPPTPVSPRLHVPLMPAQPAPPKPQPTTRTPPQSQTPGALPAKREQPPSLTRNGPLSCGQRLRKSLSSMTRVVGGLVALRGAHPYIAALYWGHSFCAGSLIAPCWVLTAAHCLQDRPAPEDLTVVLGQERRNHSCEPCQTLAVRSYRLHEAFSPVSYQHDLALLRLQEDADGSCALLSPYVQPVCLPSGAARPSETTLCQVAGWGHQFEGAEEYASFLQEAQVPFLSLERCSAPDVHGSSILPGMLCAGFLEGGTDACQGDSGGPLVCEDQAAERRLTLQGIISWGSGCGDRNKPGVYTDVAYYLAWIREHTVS

[7] = target: Phosphoethanolamine/phosphocholine phosphatase (Homo sapiens, UniProt Q8TCT1); assay: SAR assay for compounds that inhibit PHOSPHO1. [Related pubchem assays (depositor defined):AID1545, AID1565, AID1574]
Phosphoethanolamine/phosphocholine phosphatase, sequence (Q8TCT1 whole entry): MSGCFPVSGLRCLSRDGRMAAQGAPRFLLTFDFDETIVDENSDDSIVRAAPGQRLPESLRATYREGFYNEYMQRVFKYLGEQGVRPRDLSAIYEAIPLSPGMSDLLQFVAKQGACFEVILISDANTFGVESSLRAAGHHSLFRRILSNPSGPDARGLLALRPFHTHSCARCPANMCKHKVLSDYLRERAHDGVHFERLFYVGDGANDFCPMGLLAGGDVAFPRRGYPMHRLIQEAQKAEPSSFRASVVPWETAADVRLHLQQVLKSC

[8] = target: T3, Mannose-6-phosphate isomerase (Homo sapiens, UniProt P34949); assay: phosphomannose isomerase inhibition – biochemical, fluorescence intensity, confirmation (AID 1535)
T3 sequence (P34949 whole entry): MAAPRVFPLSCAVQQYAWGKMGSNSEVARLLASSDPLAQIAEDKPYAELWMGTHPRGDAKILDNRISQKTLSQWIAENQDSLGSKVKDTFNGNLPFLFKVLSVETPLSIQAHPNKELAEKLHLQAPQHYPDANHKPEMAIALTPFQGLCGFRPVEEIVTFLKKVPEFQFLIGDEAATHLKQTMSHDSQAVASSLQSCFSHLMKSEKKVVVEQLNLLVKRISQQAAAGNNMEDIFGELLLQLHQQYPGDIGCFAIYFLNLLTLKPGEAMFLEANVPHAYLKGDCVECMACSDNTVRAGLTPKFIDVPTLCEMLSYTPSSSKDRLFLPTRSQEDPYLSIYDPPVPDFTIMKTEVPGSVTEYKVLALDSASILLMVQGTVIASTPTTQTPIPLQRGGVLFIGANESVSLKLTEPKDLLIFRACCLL

Phosphomannomutase 2 = target: T4, Phosphomannomutase 2 (Homo sapiens, UniProt O15305); assay: Counter screen SAR assay for PMM2 inhibitors via a fluorescence intensity assay. [Related pubchem assays (depositor defined):AID1545, AID1574]
T4 sequence (O15305 whole entry): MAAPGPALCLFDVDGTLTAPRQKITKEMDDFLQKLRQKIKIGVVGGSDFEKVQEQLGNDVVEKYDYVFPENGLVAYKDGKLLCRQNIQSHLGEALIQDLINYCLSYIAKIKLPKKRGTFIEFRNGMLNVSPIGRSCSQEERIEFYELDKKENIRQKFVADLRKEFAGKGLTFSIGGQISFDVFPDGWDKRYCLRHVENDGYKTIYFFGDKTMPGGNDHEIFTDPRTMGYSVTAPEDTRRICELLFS

[9] = target: T5, Alkaline phosphatase, tissue-nonspecific isozyme (Homo sapiens, UniProt P05186); assay: potency against alkaline phosphatase TNAP – biochemical, luminescent, dose response, SAR follow-up (AID 1056)
T5 sequence (P05186 whole entry): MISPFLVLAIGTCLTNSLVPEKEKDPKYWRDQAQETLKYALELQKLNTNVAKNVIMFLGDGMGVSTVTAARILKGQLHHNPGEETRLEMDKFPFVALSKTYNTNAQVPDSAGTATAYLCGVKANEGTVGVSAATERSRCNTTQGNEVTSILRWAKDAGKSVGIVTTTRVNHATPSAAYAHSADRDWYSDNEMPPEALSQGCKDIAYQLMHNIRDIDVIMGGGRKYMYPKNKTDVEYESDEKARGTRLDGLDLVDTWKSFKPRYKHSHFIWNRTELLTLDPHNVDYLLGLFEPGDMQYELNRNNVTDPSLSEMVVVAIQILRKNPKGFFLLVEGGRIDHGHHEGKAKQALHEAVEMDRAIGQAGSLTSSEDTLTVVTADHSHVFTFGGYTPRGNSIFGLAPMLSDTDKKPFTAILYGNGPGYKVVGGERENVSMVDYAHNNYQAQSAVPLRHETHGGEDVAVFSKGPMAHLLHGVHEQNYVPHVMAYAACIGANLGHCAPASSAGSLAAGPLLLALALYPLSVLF

[10] = target: Alkaline phosphatase, placental type (Homo sapiens, UniProt P05187); assay: human placental alkaline phosphatase inhibition – biochemical, luminescence, confirmation (AID 1512); type: functional
Alkaline phosphatase, placental type, sequence (P05187 whole entry): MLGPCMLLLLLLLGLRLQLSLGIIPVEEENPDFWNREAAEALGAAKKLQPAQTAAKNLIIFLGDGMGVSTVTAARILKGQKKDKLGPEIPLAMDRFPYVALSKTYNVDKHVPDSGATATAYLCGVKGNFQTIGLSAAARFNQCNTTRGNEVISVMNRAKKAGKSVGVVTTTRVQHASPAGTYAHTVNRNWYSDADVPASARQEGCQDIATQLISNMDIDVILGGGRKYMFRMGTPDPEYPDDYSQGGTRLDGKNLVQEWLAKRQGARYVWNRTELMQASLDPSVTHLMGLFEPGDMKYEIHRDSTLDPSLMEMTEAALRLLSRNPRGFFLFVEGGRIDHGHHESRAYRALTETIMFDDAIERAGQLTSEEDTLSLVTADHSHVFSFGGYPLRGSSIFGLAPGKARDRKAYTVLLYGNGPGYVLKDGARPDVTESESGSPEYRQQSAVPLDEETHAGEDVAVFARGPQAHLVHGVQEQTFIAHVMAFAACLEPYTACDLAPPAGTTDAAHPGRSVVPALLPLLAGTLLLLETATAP

[11] = target: Intestinal-type alkaline phosphatase (Homo sapiens, UniProt P09923); assay: human intestinal alkaline phosphatase activators, dose response, biochemical, luminescence, uHTS hits (AID 463120); type: functional
Intestinal-type alkaline phosphatase, sequence (P09923 whole entry): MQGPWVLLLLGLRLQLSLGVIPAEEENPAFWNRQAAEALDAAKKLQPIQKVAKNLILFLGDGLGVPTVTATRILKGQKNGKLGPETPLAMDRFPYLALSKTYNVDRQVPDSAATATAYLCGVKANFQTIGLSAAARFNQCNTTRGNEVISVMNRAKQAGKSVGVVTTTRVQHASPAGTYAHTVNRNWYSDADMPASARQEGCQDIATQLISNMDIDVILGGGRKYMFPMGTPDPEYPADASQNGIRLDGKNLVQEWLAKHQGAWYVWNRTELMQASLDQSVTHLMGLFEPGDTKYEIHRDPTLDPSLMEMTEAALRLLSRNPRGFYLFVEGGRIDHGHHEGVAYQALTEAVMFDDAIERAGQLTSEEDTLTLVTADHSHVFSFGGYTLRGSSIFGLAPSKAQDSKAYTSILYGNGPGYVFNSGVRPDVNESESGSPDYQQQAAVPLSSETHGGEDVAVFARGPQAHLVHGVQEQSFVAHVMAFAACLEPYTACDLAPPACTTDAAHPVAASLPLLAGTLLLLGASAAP

CAAX prenyl protease 2 = CAAX prenyl protease 2 (Saccharomyces cerevisiae S288c, UniProt Q03530); type: biochemical
CAAX prenyl protease 2, sequence (Q03530 whole entry): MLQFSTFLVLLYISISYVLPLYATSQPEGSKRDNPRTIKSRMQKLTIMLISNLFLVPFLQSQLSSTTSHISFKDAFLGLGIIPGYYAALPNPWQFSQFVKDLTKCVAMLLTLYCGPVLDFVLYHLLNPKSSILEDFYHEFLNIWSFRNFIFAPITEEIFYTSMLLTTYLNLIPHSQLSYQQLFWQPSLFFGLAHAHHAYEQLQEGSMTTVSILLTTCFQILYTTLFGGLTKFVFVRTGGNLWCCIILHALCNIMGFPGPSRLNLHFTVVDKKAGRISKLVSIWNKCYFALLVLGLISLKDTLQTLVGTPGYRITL

IC50 (Coagulation factor XII): > 50 µM (inactive)
Structure (SMILES): CCCSc1nnc(-c2c[nH]c3ccccc23)n1C

IC50 [7]: 100 nM (active)
IC50 [8]: 709 nM (active)
IC50 (Phosphomannomutase 2): 2.46 µM (active)
Structure (SMILES): O=c1c2c([N+](=O)[O-])cc([N+](=O)[O-])cc2sn1-c1ccc(F)cc1

IC50 [9]: 39.3 µM (active)
IC50 [10]: 4.87 µM (active)
Structure (SMILES): O=C(CN1CCCc2ccccc21)c1ccc(O)c(O)c1

EC50 [11]: 13.1 µM (active)
Structure (SMILES): CCOc1ccc(CC(=O)NNC(=S)NCCc2ccccc2)cc1

IC50 [7]: 23.3 nM (active)
IC50 [8]: 1450 nM (active)
IC50 (Phosphomannomutase 2): 4.22 µM (active)
Structure (SMILES): O=c1c2c([N+](=O)[O-])cc([N+](=O)[O-])cc2sn1-c1ccccc1F

IC50 (Coagulation factor XII): > 50 µM (inactive)
Structure (SMILES): COc1ccc2cc(CN(CCO)C(=O)c3ccccc3F)c(=O)[nH]c2c1

Continued, molecule first:

Structure (SMILES): O=C(CCc1ccccc1)Nc1sc2c(c1C(=O)O)CCCC2
CC50 [1]: 42.7 µM (active)
IC50 (HEK293): > 20 µM (inactive)
AC50 [2]: 28.3 µM (active)
IC50 [3]: > 20 µM (inactive)
IC50 [4]: > 20 µM (inactive)
IC50 (Tumor necrosis factor): > 20 µM (inactive)
IC50 (cells): 39.6 µM (active)

Structure (SMILES): Cn1nc(-c2ccc(Cl)cc2)cc1C(=O)NC1CCCc2c1cnn2-c1ccccc1F (configuration not stated)
IC50 (HEK293): > 20 µM (inactive)
IC50 [3]: 1.92 µM (active)
IC50 [4]: 1.72 µM (active)
IC50 (Tumor necrosis factor): 2.72 µM (active)

Structure (SMILES): Cc1ccc(NC(S)=NC(NC(=O)Cc2cccc3ccccc23)C(Cl)(Cl)Cl)cc1 (configuration not stated)
Absolute IC50 (XBP1) (X-box-binding protein 1): 10 µM
EC50 [5]: 13.1 µM (active)
AC50 [2]: 2.18 µM (active)
EC50 [6]: 18.3 µM (active)

Structure (SMILES): CN(C)CCNC(=O)c1cccn(Cc2cc(C(F)(F)F)cc(C(F)(F)F)c2)c1=O
AC50 (CAAX prenyl protease 2): > 100 µM (inactive)
